In ChEMBL document CHEMBL1212847, “Synthesis and pharmacology of 1-methoxy analogs of CP-47,497” (Bioorg Med Chem, 2010):

Assays:
Cannabinoid receptor 1 = Cannabinoid receptor 1 (Rattus norvegicus, UniProt P20272); test: Displacement of [3H]CP-55940 from CB1 receptor in Sprague-Dawley rat brain cortex membranes; type: cell membranes, Membrane
Cannabinoid receptor 2 = Cannabinoid receptor 2 (Homo sapiens, UniProt P34972); test: Displacement of [3H]CP-55940 from human CB2 receptor expressed in CHO cells after 1 hr by liquid scintillation spectrometry analysis; type: cell-based
Cannabinoid receptor 2, sequence (P34972 whole entry): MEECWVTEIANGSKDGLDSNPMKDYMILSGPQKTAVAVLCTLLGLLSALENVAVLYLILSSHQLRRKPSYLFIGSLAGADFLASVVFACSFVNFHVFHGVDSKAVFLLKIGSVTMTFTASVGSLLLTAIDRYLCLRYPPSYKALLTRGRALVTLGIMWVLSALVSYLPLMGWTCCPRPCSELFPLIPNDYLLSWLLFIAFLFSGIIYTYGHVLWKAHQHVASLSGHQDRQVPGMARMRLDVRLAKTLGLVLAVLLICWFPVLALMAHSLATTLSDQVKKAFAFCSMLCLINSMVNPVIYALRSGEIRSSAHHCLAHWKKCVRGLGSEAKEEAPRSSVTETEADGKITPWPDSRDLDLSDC

Cannabinoid receptor 1, sequence (P20272 whole entry): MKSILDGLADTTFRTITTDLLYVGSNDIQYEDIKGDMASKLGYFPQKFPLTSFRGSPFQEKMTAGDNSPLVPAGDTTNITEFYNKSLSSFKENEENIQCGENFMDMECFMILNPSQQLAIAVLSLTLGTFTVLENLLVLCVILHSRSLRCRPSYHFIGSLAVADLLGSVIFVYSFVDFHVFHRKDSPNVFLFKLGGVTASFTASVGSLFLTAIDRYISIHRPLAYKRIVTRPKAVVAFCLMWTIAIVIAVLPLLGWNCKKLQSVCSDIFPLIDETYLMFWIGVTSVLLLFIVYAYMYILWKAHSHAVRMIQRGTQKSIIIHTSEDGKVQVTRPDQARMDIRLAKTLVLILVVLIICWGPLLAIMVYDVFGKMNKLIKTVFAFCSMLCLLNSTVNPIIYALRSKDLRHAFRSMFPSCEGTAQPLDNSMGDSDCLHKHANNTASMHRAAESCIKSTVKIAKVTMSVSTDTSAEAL

Compound: CCCCCCC(C)(C)c1ccc([C@H]2CCC[C@@H](O)C2)c(O)c1
- Ki (Cannabinoid receptor 1): 9.54 nM

Compound: CCCCCCC(C)(C)c1ccc([C@H]2CCC[C@@H](O)C2)c(OC)c1 (relative stereo)
- Ki (Cannabinoid receptor 1): > 10000 nM
- Ki (Cannabinoid receptor 2): 808 nM

Compound: CCCCCC(C)(C)c1ccc([C@H]2CCC[C@H](O)C2)c(OC)c1 (relative stereo)
- Ki (Cannabinoid receptor 1): 4120 nM
- Ki (Cannabinoid receptor 2): 693 nM

Compound: CCCCCCC(C)(C)c1ccc([C@H]2CCC[C@H](O)C2)cc1 (relative stereo)
- Ki (Cannabinoid receptor 1): 645 nM
- Ki (Cannabinoid receptor 2): 178 nM

Compound: CCCCCC(C)(C)c1ccc([C@H]2CCC[C@@H](O)C2)c(OC)c1 (relative stereo)
- Ki (Cannabinoid receptor 1): 4410 nM
- Ki (Cannabinoid receptor 2): 553 nM
